According to patent publication US9556165B2 (priority 2012, dated 2017):
≈ marks a conversion by molar mass, not a printed value. Read-outs that look alike come from different tables or passages of the source.

Tests used:
Assay type in all cases: cell-based
[1] = system: M. morganii 126/3048; assay: MIC determination, broth microdilution (CLSI); settings: Morganella morganii, 126/3048, strain 5
[2] = system: E. coli J62; assay: MIC determination, broth microdilution (CLSI); settings: Escherichia coli, J62, strain 17; broth microdilution; read-out: MIC strain 17 (E. coli J62)
[3] = system: H. influenzae ATCC 49247; assay: MIC determination, broth microdilution (CLSI); settings: Haemophilus influenzae, ATCC49247, strain 12; broth microdilution; read-out: MIC strain 12 (H. influenzae ATCC 49247)
[4] = system: S. pneumoniae 113; assay: MIC determination, broth microdilution (CLSI); settings: Streptococcus pneumoniae, 113, strain 13; broth microdilution; read-out: MIC strain 13 (S. pneumoniae 113)
[5] = system: S. aureus 133; assay: MIC determination, broth microdilution (CLSI)
[6] = system: Bacteria; assay: MIC determination in combination with β-lactamase inhibitors (constant 4 μg/mL)
[7] = system: E. coli ATCC25922; assay: MIC determination, broth microdilution (CLSI); settings: Escherichia coli, ATCC25922, strain 1
[8] = system: P. aeruginosa 2297-con (AmpC derepressed); assay: MIC determination, broth microdilution (CLSI); settings: Pseudomonas aeruginosa, read-out: strain 8 MIC, strain 8
[9] = system: E. coli J62-TEM-3; assay: MIC determination, broth microdilution (CLSI); settings: Escherichia coli, J62TEM3, read-out: MIC strain 18 (E. coli J62-TEM-3), strain 18; broth microdilution
[10] = system: C. perfringens DSM756; assay: microbe, parasite or virus in culture; settings: Clostridium perfringens, DSM756, read-out: MIC strain 16 (C. perfringens DSM756), strain 16; broth microdilution
[11] = system: P. aeruginosa 2297 (AmpC wt); assay: MIC determination, broth microdilution (CLSI); settings: Pseudomonas aeruginosa, strain 7
[12] = system: A. baumannii ATCC15308; assay: MIC determination, broth microdilution (CLSI); settings: Acinetobacter baumannii, ATCC15308, strain 9
[13] = system: C. freundii K21/3034; assay: MIC determination, broth microdilution (CLSI); settings: Citrobacter freundii, K21/3034, strain 4
[14] = system: K. pneumoniae 60; assay: MIC determination, broth microdilution (CLSI); settings: Klebsiella pneumoniae, 60, strain 2
[15] = system: S. maltophilia ICB7569; assay: MIC determination, broth microdilution (CLSI); settings: Stenotrophomonas maltophilia, ICB7569, strain 10
[16] = system: P. aeruginosa PAO1; assay: MIC determination, broth microdilution (CLSI); settings: Pseudomonas aeruginosa, PAO1, strain 6
[17] = system: E. cloacae 34654; assay: MIC determination, broth microdilution (CLSI); settings: Enterobacter cloacae, 34654, strain 3
[18] = system: B. fragilis 6688; assay: MIC determination, broth microdilution (CLSI); settings: Bacteroides fragilis, 6688, strain 15; broth microdilution; read-out: MIC strain 15 (B. fragilis 6688)
[19] = Staphylococcus aureus, 133, strain 11, read-out: strain 11 MIC
[20] = Staphylococcus aureus, 133, strain 14, broth microdilution, read-out: MIC strain 14 (S. aureus 133)

| SMILES | MIC [1] | MIC [2] | MIC [3] | MIC [4] | MIC [5, 19] | MIC strain 19 (E. coli J62-TEM-3 + 4 μg/mL clavulanic acid) [6] | MIC strain 20 (E. coli J62-TEM-3 + 4 μg/mL sulbactam) [6] | MIC strain 21 (E. coli J62-TEM-3 + 4 μg/mL tazobactam) [6] | MIC [7] | MIC [8] | MIC [9] | MIC [10] | MIC [11] | MIC [12] | MIC [13] | MIC [14] | MIC [15] | MIC [16] | MIC [17] | MIC [18] | further results |
| --- | --- | --- | --- | --- | --- | --- | --- | --- | --- | --- | --- | --- | --- | --- | --- | --- | --- | --- | --- | --- | --- |
| CC1(C)[C@H](NC(=O)/C(=N\OCc2ccc(C(=N)N)cc2)c2csc(N)n2)C(=O)N1OS(=O)(=O)O [Example 57, (2Z)-2-(2-Amino-1,3-thiazol-4-yl)-2-{[(4-carbamimidoylbenzyl)oxy]imino}-N-[(3S)-2,2-dimethyl-4-oxo-1-(sulfooxy)azetidin-3-yl]ethanamide] | 1 µg/mL (≈ 1.95 µM) | 2 µg/mL (≈ 3.91 µM) | 0.125 µg/mL (≈ 0.244 µM) | ≤ 0.063 µg/mL | ≤ 0.063 µg/mL | 1 µg/mL | 1 µg/mL | 2 µg/mL | 1 µg/mL (≈ 1.95 µM) | 16 µg/mL (≈ 31.3 µM) | 32 µg/mL (≈ 62.6 µM) | 2 µg/mL (≈ 3.91 µM) | 32 µg/mL (≈ 62.6 µM) | 2 µg/mL (≈ 3.91 µM) | 1 µg/mL (≈ 1.95 µM) | 2 µg/mL (≈ 3.91 µM) | 32 µg/mL (≈ 62.6 µM) | 32 µg/mL (≈ 62.6 µM) | 2 µg/mL (≈ 3.91 µM) | 1 µg/mL (≈ 1.95 µM) | MIC [5, 20]: 4 µg/mL (≈ 7.82 µM) |
| CN1CC[C@H](NC(=N)c2ccc(OC[C@H](O/N=C(\C(=O)N[C@@H]3C(=O)N(OS(=O)(=O)O)C3(C)C)c3csc(N)n3)C(=O)O)cc2)C1 [Example 101] | 0.125 µg/mL (≈ 0.187 µM) | 0.125 µg/mL (≈ 0.187 µM) | ≤ 0.063 µg/mL | 0.5 µg/mL (≈ 0.748 µM) | ≤ 0.063 µg/mL | ≦0.063 mg/L | ≦0.063 mg/L | 0.125 µg/mL | 0.125 µg/mL (≈ 0.187 µM) | 2 µg/mL (≈ 2.99 µM) | 8 µg/mL (≈ 12 µM) | 2 µg/mL (≈ 2.99 µM) | 4 µg/mL (≈ 5.98 µM) | 4 µg/mL (≈ 5.98 µM) | 0.125 µg/mL (≈ 0.187 µM) | 0.125 µg/mL (≈ 0.187 µM) | 8 µg/mL (≈ 12 µM) | 2 µg/mL (≈ 2.99 µM) | 0.125 µg/mL (≈ 0.187 µM) | 8 µg/mL (≈ 12 µM) | – |
| CC1(C)[C@H](NC(=O)/C(=N\OCCOc2ccc(C3=NCC(CN)N3)cc2)c2csc(N)n2)C(=O)N1OS(=O)(=O)O (stereo partly drawn) [Example 91, (2Z)-2-[(2-{4-[5-(Aminomethyl)-4,5-dihydro-1H-imidazol-2-yl]phenoxy}ethoxy)imino]-2-(2-amino-1,3-thiazol-4-yl)-N-[(3S)-2,2-dimethyl-4-oxo-1-(sulfooxy)azetidin-3-yl]ethanamide] | 0.25 µg/mL (≈ 0.419 µM) | 0.125 µg/mL (≈ 0.21 µM) | ≤ 0.063 µg/mL | ≤ 0.063 µg/mL | ≤ 0.063 µg/mL | 0.125 µg/mL | 0.125 µg/mL | 0.125 µg/mL | 0.125 µg/mL (≈ 0.21 µM) | 2 µg/mL (≈ 3.35 µM) | 4 µg/mL (≈ 6.7 µM) | 2 µg/mL (≈ 3.35 µM) | 4 µg/mL (≈ 6.7 µM) | 1 µg/mL (≈ 1.68 µM) | 0.125 µg/mL (≈ 0.21 µM) | 0.125 µg/mL (≈ 0.21 µM) | 16 µg/mL (≈ 26.8 µM) | 2 µg/mL (≈ 3.35 µM) | 0.25 µg/mL (≈ 0.419 µM) | 4 µg/mL (≈ 6.7 µM) | MIC [5, 20]: 2 µg/mL (≈ 3.35 µM) |
| CC1(C)[C@H](NC(=O)/C(=N\OCCOc2ccc(C(=N)NCC(=O)O)cc2)c2csc(N)n2)C(=O)N1OS(=O)(=O)O [Example 73, N-[{4-[2-({[(1Z)-1-(2-Amino-1,3-thiazol-4-yl)-2-{[(3S)-2,2-dimethyl-4-oxo-1-(sulfo-oxy)azetidin-3-yl]amino}-2-oxoethylidene]amino}oxy)ethoxy]phenyl}(imino)methyl]glycine] | 0.5 µg/mL (≈ 0.834 µM) | 1 µg/mL (≈ 1.67 µM) | 0.25 µg/mL (≈ 0.417 µM) | ≤ 0.063 µg/mL | ≤ 0.063 µg/mL | 0.5 µg/mL | 0.5 µg/mL | 1 µg/mL | 0.5 µg/mL (≈ 0.834 µM) | 32 µg/mL (≈ 53.4 µM) | 32 µg/mL (≈ 53.4 µM) | 4 µg/mL (≈ 6.67 µM) | 32 µg/mL (≈ 53.4 µM) | 16 µg/mL (≈ 26.7 µM) | 0.5 µg/mL (≈ 0.834 µM) | 0.5 µg/mL (≈ 0.834 µM) | 32 µg/mL (≈ 53.4 µM) | 16 µg/mL (≈ 26.7 µM) | 0.5 µg/mL (≈ 0.834 µM) | 8 µg/mL (≈ 13.3 µM) | MIC [5, 20]: 32 µg/mL (≈ 53.4 µM) |
| CN(C)C(=O)[C@@H]1C[C@H](NC(=N)c2ccc(OCCO/N=C(\C(=O)N[C@@H]3C(=O)N(OS(=O)(=O)O)C3(C)C)c3csc(N)n3)cc2)CN1 [Example 42, (4S)-4-{[{4-[2-({[(1Z)-1-(2-Amino-1,3-thiazol-4-yl)-2-{[(3S)-2,2-dimethyl-4-oxo-1-(sulfooxy)azetidin-3-yl]amino}-2-oxoethylidene]amino}oxy)ethoxy]phenyl}(imino)methyl]amino}-N,N-dimethyl-L-prolinamide] | 2 µg/mL (≈ 2.93 µM) | 1 µg/mL (≈ 1.47 µM) | 0.25 µg/mL (≈ 0.367 µM) | 0.125 µg/mL (≈ 0.183 µM) | ≤ 0.063 µg/mL | 1 µg/mL | 1 µg/mL | 1 µg/mL | 1 µg/mL (≈ 1.47 µM) | 16 µg/mL (≈ 23.5 µM) | 16 µg/mL (≈ 23.5 µM) | 4 µg/mL (≈ 5.87 µM) | 16 µg/mL (≈ 23.5 µM) | 8 µg/mL (≈ 11.7 µM) | 1 µg/mL (≈ 1.47 µM) | 1 µg/mL (≈ 1.47 µM) | 16 µg/mL (≈ 23.5 µM) | 16 µg/mL (≈ 23.5 µM) | 2 µg/mL (≈ 2.93 µM) | 8 µg/mL (≈ 11.7 µM) | MIC [5, 20]: 16 µg/mL (≈ 23.5 µM) |
| CC1(C)[C@H](NC(=O)/C(=N\OC(COc2ccc(C(=N)NC3CCCNC3)cc2)C(=O)O)c2csc(N)n2)C(=O)N1OS(=O)(=O)O (stereo in doubt) [Example 89, (2R)-2-({[(1Z)-1-(2-Amino-1,3-thiazol-4-yl)-2-{[(3S)-2,2-dimethyl-4-oxo-1-(sulfooxy)-azetidin-3-yl]amino}-2-oxoethylidene]amino}oxy)-3-(4-{N-[(3R)-piperidin-3-yl]carbamimidoyl}phenoxy)propanoic acid] | ≤ 0.063 µg/mL | 0.125 µg/mL (≈ 0.187 µM) | ≤ 0.063 µg/mL | 0.5 µg/mL (≈ 0.748 µM) | – | ≦0.063 mg/L | ≦0.063 mg/L | 0.125 µg/mL | 0.125 µg/mL (≈ 0.187 µM) | 1 µg/mL (≈ 1.5 µM) | 4 µg/mL (≈ 5.98 µM) | 1 µg/mL (≈ 1.5 µM) | 1 µg/mL (≈ 1.5 µM) | 1 µg/mL (≈ 1.5 µM) | 0.125 µg/mL (≈ 0.187 µM) | 0.25 µg/mL (≈ 0.374 µM) | 4 µg/mL (≈ 5.98 µM) | 1 µg/mL (≈ 1.5 µM) | 0.125 µg/mL (≈ 0.187 µM) | 8 µg/mL (≈ 12 µM) | MIC [5, 20]: 32 µg/mL (≈ 47.9 µM) |
